Laboratory results: patent US20010025105A1, “Certain substituted 1-aryl-3-piperazine-1'-yl propanones” (Molecular Geriatarics Corporation, priority 1997, published 2001)
Counter-ions that a name gives are not always drawn.

What was measured:
[1] = test system: TG3 immunoreactivity in OKA treated MSN1a cells; assay: MSN1a cell culture model, ELISA with TG3 antibody, okadaic acid treated cells; type: cell-based, human; conditions: Homo sapiens, 1 μM OKA, 2 hrs at 37° C., read-out: IC50 for inhibition of TG3 immunoreactivity in OKA treated MSN1a cells
Protocol: This assay can thus be used to determine whether a drug is capable of preventing or intervening in AD by attenuating the production of abnormally phosphorylated paired helical filament epitopes associated with AD. To determine whether a drug is capable of preventing or intervening in AD activity, the MSN1a cells containing tau and associated proteins are treated with OKA capable of greatly increasing immunoreactivity of the MSN1a cells with AD specific monoclonal antibodies. Then, either prior to or concomitantly with OKA treatment, a compound of the present invention is added to the culture. If the compound prevents the induction of the AD epitopes in the MSN1a cells treated with OKA, then it is said to have anti-AD activity. If the AD-specific antibodies are highly reactive with the neuroblastoma cells following OKA treatment in the presence of compound, then the compound is said to be ineffectual against AD.
The MSN1a human neuroblastoma line was subcloned from a population of MSN cells obtained from the laboratory of Dr. Peter Davies (Albert Einstein College of Medicine, New York, N.Y.). Cells were grown and maintained in flasks in RPMI 1640 medium, supplemented with 15% fetal calf serum, 100 U/ml penicillin, 100 U/ml Streptomycin, 0.5 ug/ml fungizone under 7.5% CO2 at 37° C.
Stock solutions of drugs were prepared by dissolving the anhydrous powders to final concentrations of either 10 or 20 mM in 50% aqueous or 100% dimethyl sulfoxide (DMSO), respectively. Working solutions of drugs were prepared by dilution of the stock solutions with Kreb's Ringer in Hepes buffer (KRH) (128 mM NaCl, 5 mM KCl, 2.5 mM CaCl2 1.2 mM MgSO4, 1 mM Na2HPO4, 10 mM dextrose, 20 mM Hepes, pH 7.4). OKA is maintained as a 1 mM stock solution in DMSO prior to dilution to 4 μM in KRH.
MSN cells grown in 225 cm^2 flasks are removed from the incubator, their medium decanted and replaced with 50 ml pre-warmed KRH. The cells are harvested by scraping prior to sedimentation at 1000 rpm for 5 min. The supernatants are discarded and the cell pellets are resuspended, the cells counted and diluted to a density of 2×10^4 cells/[…]. The cells are then plated in a 96 well plate at 50 μl/well and 25 μl of 4 μM OKA and 25 μl of drug are then added to the appropriate wells; the entire 96 well plate is then incubated for 2 hrs at 37° C. Depending on the dilution of drug added, this yields individual wells containing 1 μM OKA, 0-64 μM drug and 2×10^4 cells in 0.26% DMSO in KRH. The incubation is terminated by the addition of 20 μl of 6X extraction buffer and immediate freezing at −80° C. for at least one hr. The 6X extraction buffer contains: 25 mM Tris-HCl, pH 7.6, 150 mM NaCl, 5 mM EDTA, 24 mM β-glycerol phosphate, 10 μg/ml APMSF (4-amidinophenylmethane-sulfonyl flouride), and 2.5 μg/ml each of leupeptin, aprotinin, and pepstatin. The plates are thawed in a 37° C. water bath and 20 μl of cell lysate is added to a replica well in an ELISA plate that already contains 80 μl of coating buffer (15 mM Na2CO3 and 35 mM NaHCO3, pH 9.6). The plates are allowed to coat overnight at 4° C. The plates are washed four times with deionized water and then blocked for 30 min at 37° C. with 200 μl/well pre-warmed 1% bovine serum albumin in 10 mM Tris-HCl, pH 7.4, 150 mM NaCl, 3 mM NaN3 (BSA-TBS). After the blocking solution is removed, 100 μl/well of an appropriate dilution of pre-warmed primary antibody (eg., TG3 or PHF-1) in BSA-TBS is added and incubated at 37° C. for 30 min. Incubation is terninated by washing four times in deionized water at which time 100 μl of an appropriate dilution of pre-warmed secondary antibody (conjugated to alkaline phosphatase) in BSA-TBS is added to each well in the ELISA plate. Incubation is performed for 30 min at 37° C. followed by washing 4 times with deionized water. […] of prewarmed chromogenic substrate (1 mg/mnl p-nitrophenyl phosphate in 10% diethanolamine, 3 mM NaN3, 0.5 mM MgCl2, pH 9.8) is added and the plate incubated for 30 min at 37° C. […]

[2] = test system: Candida albicans SRI 523; assay: Agar disc diffusion assay; type: cell-based; conditions: 240 ug/disc, about 24 hr at 37° C.
Protocol: (§1) The activity of the compounds is determined using the following assay. The compound is dissolved in DMSO at a concentration of 6 mg/ml and then diluted with water to a final concentration of 3 mg/ml in 50% DMSO (% DMSO was shown not to be inhibitory to the test organisms). An aliquot (0.08 ml) of each drug solution was transferred to filter paper discs (12.7 mm diameter, Scmeicherand Schuell) for use in the agar diffusion assay. The concentration of each drug on the filter paper disc was 240 ug/disc. The test organisms included the following: Gram-positive aerobes (Staphylococcus aureus SRI 1323, Streptococcus pneumoniae SRI 1167); Gram-negative aerobe (Proteus vulgaris SRI 180); and the yeast Candida albicans SRI 523. An agar disc diffusion assay was used to evaluate the antimicrobial activity of the test compounds. Briefly, cultures were prepared from 16-20 hr agar slant cultures by inoculating in physiological saline to a turbidity equivalent to a #0.5 McFarland turbidity standard for the bacteria and a #3 McFarland standard for C. albicans. The surface of Mueller-Hinton agar (15×100 mm plates, mm) were evenly inoculated with each standardized culture using a cotton swab. Filter paper discs containing the drug concentration listed above were then placed on the inoculated agar plates along with a disc containing the solvent used to dissolve each drug. The plates were incubated at 37° C. for about 24 hr and the diameters of the zones of inhibition measured with a vernier caliper. Positive control drugs consisted of streptomycin for use with the bacterial strains and 5-fluorocytosine for use with C. albicans. The positive control drugs were assayed as described above for the compounds of the present invention using the same concentration.

[3] = test system: Proteus vulgaris SRI 180; assay: Agar disc diffusion assay; type: cell-based; conditions: 240 ug/disc, about 24 hr at 37° C., 0 = no measurable zone
Protocol: as §1

[4] = test system: Staphylococcus aureus SRI 1323; assay: Agar disc diffusion assay; type: cell-based; conditions: 240 ug/disc, about 24 hr at 37° C.
Protocol: as §1

[5] = test system: Streptococcus pneumoniae SRI 1167; assay: Agar disc diffusion assay; type: cell-based; conditions: 240 ug/disc, about 24 hr at 37° C., + = zone too large to measure
Protocol: as §1

[6] = test system: microtubule cytoskeleton of human CG neuroblastoma cells; assay: Antimicrotubule activity, tubulin immunofluorescence microscopy; type: cell-based; conditions: 2 hr at 37° C., read-out: Concentration where microtubule destabilization occurs
Protocol: The compounds of the invention according to formula I are effective in destabilizing microtubules, thus are useful in treating certain neoplastic diseases. Indirect immunofluorescence microscopy using the monoclonal antibodies to tubulin is used herein to determine the activity of the compounds of this invention in promoting depolymerization of the microtubule cytoskeleton in cultured cells. The following assay was employed.
Cultured human CG neuroblastoma cells were seeded 1:3 from confluent cultures onto sterile 11×22 mm coverslips in 6 well tissue culture plates 16 hr prior to treatment. The following day, the tissue culture medium is removed and the cells are exposed to various concentrations of compounds of this invention in Krebs Ringer Hepes (KRH) buffer containing a final concentration of 0.5% DMSO as carrier. Incubations were performed at 37° C. in a humidified 5% CO2 atmosphere for 2 hr. After incubation, the cells were fixed in 3% TEM grade formaldehyde in PBS for 45 min at room temperature.
To visualize the effects of the compounds of the invention on the microtubule cytoskeleton, the cells were processed for tubulin immunofluorescence. Briefly, the cells were permeabilized in 0.5% Triton-X 100 in PBS for 5 min. The cells were washed 2× with PBS and aldehydes reduced using 0.5 mg/ml NaBH4 in PBS for 5 min. Subsequently, the cells were blocked for 10 min in 1.5% BSA and 1.5% nonfat dry milk in PBS (blocking solution, BS) for 10 min. The cells were then incubated for 30 min at 37° C. with the monoclonal antibody Tu27B which recognizes b-tubulin (dilution 1:20 in BS). Subsequently, the cells were washed 2× in PBS and once in BS. The cells were then incubated for 30 min at 37° C. with sheep antimouse IgG conjugated to FITC. After incubation, the cells were washed 2× in PBS and once in BS and incubated for 30 min at 37° C. with rabbit antisheep IgG conjugated to FITC. The cells were rinsed in PBS, counterstained with Hoechst 33285 in PBS (1 μg/ml), and rinsed in PBS. The coverslips were mounted in 9:1 glycerol:PBS containing 1 mg/ml p-phenylenediamine and sealed with nail polish.
The cells were viewed using a Jenalumar epifluorescence microscope equipped with the proper filters for Fluorescein Isothiocyanate (FITC) excitation and emission. Lack of effect of a compound is evidenced by the presence of an intact microtubule network in interphase cells, or a mitotic spindle in dividing cells. Antineoplastic compounds of the invention at effective doses result in the disappearance of microtubules in both interphase and mitotic cells.

[7] = test system: paired helical filament epitopes in MSN1a cells; assay: Western blot of PHF-1 immunoreactivity in lysates of MSN1a cells; type: cell-based, human; conditions: 100 μM chlorpromazine, 2 hours at 37° C.
Protocol: These compounds are effective at micromolar concentrations, with increased potency being evident when cells are treated prior to the addition of okadaic acid. The effective concentrations appear to be in the range at which these drugs are present in the brain following chronic treatment of psychiatric patients (Svendsen, C N, Psychopharnacology, 90, 316-321, 1986). […] The cells were isolated by centrifugation, boiled for 10 minutes and […] protein from the resulting heat stable supernatants were loaded per lane on an SDS-PAGE gel. The gel was electrophoretically transferred to nitrocellulose membrane and then immnunostained with PHF-1. […] The use of the MSN1a cell culture model for screening of novel compounds for therapeutic activity in AD is, therefore, quite warranted.

[8] = test system: PHF epitopes in human brain tissue; assay: Retrospective study of autopsy brain tissue of chronically treated patients, direct ELISA using TG3 antibody; type: in vivo; conditions: N 51, sum of absorbance readings for 8 dilutions
Description: In a subsequent study, 51 additional patients were identified and the analysis was repeated as above using the TG3 antibody in an ELISA format.

[9] = test system: PHF epitope levels in human brain tissue; assay: Retrospective study of autopsy brain tissue of chronically treated patients, ALZ-EIA method; type: in vivo; conditions: frontal (Broadman area 10) and temporal (Broadman area 38) regions, FIGS. 4A and 4B
Protocol: Frontal and cortical brain tissue specimens obtained at autopsy from patients chronically treated with chlorpromazine were analyzed using the ALZ-EIA method previously described (Ghanbari, H A, et al, JAMA, 263, 2907, 1990). […] The brain tissue (post-mortem) from approximately the same number of (age matched) normal controls and Alzheimer's Disease patients were also analyzed and are presented in these figures as negative and positive controls (for normal and AD, respectively). […] Bick, K L. Raven Press, New York, 1994).

Compound | IC50 [1] [µM] | Diameter of the zone of inhibition, C. albicans [2] [mm] | Diameter of the zone of inhibition, P. vulgaris [3] [mm] | Diameter of the zone of inhibition, S. aureus [4] [mm] | Diameter of the zone of inhibition, S. pneumoniae [5] [mm] | other results
O=C(CCN1CCN(Cc2ccccc2)CC1)c1nccs1 [Example 76, 1-(2-Thiazolyl)-3-(4′-benzyl-1′-piperazinyl)-1-propanone dihydrochloride] | 10.5 |  |  |  |  | zone of inhibition at 240 µg/disc ([2]; Candida albicans, SRI523, read-out: Diameter of the zone of inhibition, C. albicans): 20.9 mm; zone of inhibition at 240 µg/disc ([3]; Proteus vulgaris, SRI180, read-out: Diameter of the zone of inhibition, P. vulgaris): 20.5 mm; zone of inhibition at 240 µg/disc ([4]; Staphylococcus aureus, SRI1323, read-out: Diameter of the zone of inhibition, S. aureus): 19.3 mm; zone of inhibition at 240 µg/disc ([5]; Streptococcus pneumoniae, SRI1167, read-out: Diameter of the zone of inhibition, S. pneumoniae): 35.5 mm
Cl.Cl.O=C(CCN1CCN(Cc2ccccc2)CC1)c1ccc([N+](=O)[O-])cc1 [Example 5] |  | 17.6 | 17.3 | 22.8 | 29.9 | minimal effective concentration [6]: 4 µM
CN(C)CCCN1c2ccccc2Sc2ccc(Cl)cc21 [Chlorpromazine, chlorpromazine] | ~70 |  |  |  |  | production of paired helical filament epitopes (PHF-1 immunoreactivity, western blot) ([7]; FIG. 3): markedly inhibit the expression of PHF epitopes; production of paired helical filament epitopes (PHF-1 immunoreactivity, western blot) ([7]; FIG. 3, listed as CPZ): greatly decreased the production of paired helical filament epitopes; SIGNAL ± SEM Frontal ([8]; post-mortem frontal brain tissue): 0.12 ± 0.11; SIGNAL ± SEM Temporal ([8]; post-mortem temporal brain tissue): 0.16 ± 0.11; PHF epitope levels (ALZ-EIA) [9]: low PHF epitope levels similar to normal controls
Cl.O=C(CCN1CCN(C(=O)c2ccccc2C(F)(F)F)CC1)c1ccccc1F [Example 43] |  | 22.5 | 15.9 | 17.7 | 25.3 | 
